Measured values as given in US9505769B2 (ASCENEURON SA, priority 2013, dated 2016).
Like-named read-outs stand apart in the source and are kept apart here.

Biological target: T1, human muscarinic acetylcholine M1 receptor (Homo sapiens, UniProt P11229)
T1 construct: expressed in transfected cells; host or cells: CHO-K1
T1 sequence (P11229 1-460): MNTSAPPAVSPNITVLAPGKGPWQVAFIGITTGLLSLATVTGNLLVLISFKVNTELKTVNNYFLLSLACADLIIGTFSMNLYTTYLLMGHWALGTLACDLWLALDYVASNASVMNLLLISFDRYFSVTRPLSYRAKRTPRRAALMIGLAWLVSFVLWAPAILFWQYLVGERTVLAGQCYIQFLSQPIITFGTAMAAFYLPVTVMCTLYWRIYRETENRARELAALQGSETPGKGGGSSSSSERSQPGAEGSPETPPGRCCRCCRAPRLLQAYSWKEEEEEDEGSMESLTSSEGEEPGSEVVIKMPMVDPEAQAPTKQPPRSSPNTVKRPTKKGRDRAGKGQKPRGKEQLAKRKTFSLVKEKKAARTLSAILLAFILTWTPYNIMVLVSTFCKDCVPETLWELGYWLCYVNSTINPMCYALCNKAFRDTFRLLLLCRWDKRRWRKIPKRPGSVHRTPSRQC
Assay: M1 PAM Assay (IP-One HTRF, IP1 accumulation in M1-CHO cells)
Assay type: cell-based
Experimental: Then diluted compounds (0.6% DMSO final concentration) are added together with EC20 of acetylcholine and incubated with the cells for 30 min at 37° C., 5% CO2.
CHO-K1 cells stably transfected with human muscarinic acetylcholine M1 receptor are cultured in Ham's F12 medium containing 10% heat inactivated fetal calf serum, 2 mM L-glutamine and Penicillin-Streptomycin grown in a humidified atmosphere at 5% CO2/95% air at 37° C.

[1] = CHO-K1 cells stably transfected with human M1 receptor, compounds added with EC20 of acetylcholine (25 nM), 30 min, intracellular IP1 by IP-One HTRF, read-out: M1 PAM EC50

Row | Compound | EC50 [1] [nM] | EC50 [nM]
1 | Cc1nc2c3c(nn2c(C)c1Cl)CN(C(=O)c1ccc(F)cc1OCCn1ccnc1C)C3 [Example 40, (3-chloro-2,4-dimethyl-7H-pyrrolo[3′,4′:3,4]pyrazolo[1,5-a]pyrimidin-8(9H)-yl)(4-fluoro-2-(2-(2-methyl-1H-imidazol-1-yl)ethoxy)phenyl)methanone] | 1000 to 3000 | –
2 | (3-chloro-4-ethyl-2-methyl-7H-pyrrolo[3′,4′:3,4]pyrazolo[1,5-a]pyrimidin-8(9H)-yl)(2-((4-hydroxytetrahydrofuran-3-yl)oxy)phenyl)methanone or (3-chloro-2-ethyl-4-methyl-7H-pyrrolo[3′,4′:3,4]pyrazolo[1,5-a]pyrimidin-8(9H)-yl)(2-((4-hydroxytetrahydrofuran-3-yl)oxy)phenyl)methanone [Example 22] | 1000 to 3000 | –
3 | Cc1nc2c3c(nn2c(C)c1Cl)CN(C(=O)c1ccncc1OC1CCN(C)CC1)C3 [Example 3, (3-chloro-2,4-dimethyl-7H-pyrrolo[3′,4′:3,4]pyrazolo[1,5-a]pyrimidin-8(9H)-yl)(3-((1-methylpiperidin-4-yl)oxy)pyridin-4-yl)methanone] | 1000 to 3000 | –
4 | O=C(c1ccc(F)cc1O[C@H]1C[C@H]2CC[C@@H](C1)N2CCO)N1Cc2nn3cc(Cl)cnc3c2C1 (single isomer, unassigned) [Example 50, (3-chloro-7H-pyrrolo[3′,4′:3,4]pyrazolo[1,5-a]pyrimidin-8(9H)-yl)(4-fluoro-2-{[(3-endo)-8-(2-hydroxyethyl)-8-azabicyclo[3.2.1]oct-3-yl]oxy}phenyl)methanone] | – | 200 to 1000
5 | O=C(c1ccc(F)cc1O[C@H]1C[C@H]2CC[C@@H](C1)N2CC1CC1)N1Cc2nn3cc(Cl)cnc3c2C1 [Example 59, (3-chloro-7H-pyrrolo[3′,4′:3,4]pyrazolo[1,5-a]pyrimidin-8(9H)-yl)(2-{[(3-endo)-8-(cyclopropylmethyl)-8-azabicyclo[3.2.1]oct-3-yl]oxy}-4-fluorophenyl)methanone] | – | < 200
6 | COCCN1[C@@H]2CC[C@H]1C[C@@H](Oc1cc(F)ccc1C(=O)N1Cc3nn4cc(Cl)cnc4c3C1)C2 [Example 52, (3-chloro-7H-pyrrolo[3′,4′:3,4]pyrazolo[1,5-a]pyrimidin-8(9H)-yl)(4-fluoro-2-{[(3-endo)-8-(2-methoxyethyl)-8-azabicyclo[3.2.1]oct-3-yl]oxy}phenyl)methanone] | – | 200 to 1000
7 | CC(O)CN1[C@@H]2CC[C@H]1C[C@@H](Oc1cc(F)ccc1C(=O)N1Cc3nn4cc(Cl)cnc4c3C1)C2 (stereo partly drawn) [Example 73, (3-chloro-7H-pyrrolo[3′,4′:3,4]pyrazolo[1,5-a]pyrimidin-8(9H)-yl)(4-fluoro-2-{[(3-endo)-8-(2-hydroxypropyl)-8-azabicyclo[3.2.1]oct-3-yl]oxy}phenyl)methanone] | – | 200 to 1000
8 | Cc1nc2c3c(nn2c(C)c1Cl)CN(C(=O)c1ccccc1O[C@H]1CCCC[C@@H]1O)C3 (racemic) [Example 17, (anti)-(3-chloro-2,4-dimethyl-7H-pyrrolo[3′,4′:3,4]pyrazolo[1,5-a]pyrimidin-8(9H)-yl)(2-((2-hydroxycyclohexyl)oxy)phenyl)methanone] | 1000 to 3000 | –
9 | Cc1nc2c3c(nn2c(C)c1Cl)CN(C(=O)c1ccc(F)cc1O[C@H]1CNC[C@@H]1O)C3 (racemic) [Example 27, (anti)-(6-Chloro-5,7-dimethyl-1H,3H-2,4,7a,8-tetraaza-cyclopenta[a]inden-2-yl)-[4-fluoro-2-(4-hydroxy-pyrrolidin-3-yloxy)-phenyl]-methanone] | 200 to 1000 | –
10 | Cc1nc2c3c(nn2c(C)c1Cl)CN(C(=O)c1ccc(F)cc1OCCn1cncn1)C3 [Example 20] | 200 to 1000 | –
11 | Cc1nc2c3c(nn2c(C)c1Cl)CN(C(=O)c1ccc(F)cc1OC1CCC(F)(F)CC1)C3 [Example 47, (3-chloro-2,4-dimethyl-7H-pyrrolo[3′,4′:3,4]pyrazolo[1,5-a]pyrimidin-8(9H)-yl)(2-((4,4-difluorocyclohexyl)oxy)-4-fluorophenyl)methanone] | 1000 to 3000 | –
12 | CN1[C@@H]2CC[C@H]1C[C@@H](Oc1cc(F)ccc1C(=O)N1Cc3nn4cc(C5CC5)cnc4c3C1)C2 [Example 74, (3-cyclopropyl-7H-pyrrolo[3′,4′:3,4]pyrazolo[1,5-a]pyrimidin-8(9H)-yl)(4-fluoro-2-{[(3-endo)-8-methyl-8-azabicyclo[3.2.1]oct-3-yl]oxy}phenyl)methanone] | – | < 200
13 | Cc1nc2c3c(nn2c(C)c1Cl)CN(C(=O)c1ccccc1O[C@H]1CCNC[C@@H]1O)C3 (single isomer, unassigned) [Example 5] | 200 to 1000 | –

Further lines, with some results ahead:

Row | EC50 [1] [nM] | Compound | EC50 [nM]
14 | 200 to 1000 | Cc1cncc(CCOc2cc(F)ccc2C(=O)N2Cc3nn4c(C)c(Cl)c(C)nc4c3C2)c1 [Example 67, (3-chloro-2,4-dimethyl-7H-pyrrolo[3′,4′:3,4]pyrazolo[1,5-a]pyrimidin-8(9H)-yl)(4-fluoro-2-(2-(5-methylpyridin-3-yl)ethoxy)phenyl)methanone] | –
15 | 200 to 1000 | O=C(c1ccc(F)cc1O[C@H]1C[C@H]2CC[C@@H](C1)N2CC(F)F)N1Cc2nn3cc(Cl)cnc3c2C1 [Example 65, (3-chloro-7H-pyrrolo[3′,4′:3,4]pyrazolo[1,5-a]pyrimidin-8(9H)-yl)(2-{[(3-endo)-8-(2,2-difluoroethyl)-8-azabicyclo[3.2.1]oct-3-yl]oxy}-4-fluorophenyl)methanone] | –
16 | 200 to 1000 | Cc1nc2c3c(nn2c(C)c1Cl)CN(C(=O)c1ccc(F)cc1O[C@H]1CCN(C)C[C@@H]1F)C3 (racemic) [Example 2, (anti)-(3-chloro-2,4-dimethyl-7H-pyrrolo[3′,4′:3,4]pyrazolo[1,5-a]pyrimidin-8(9H)-yl)(4-fluoro-2-((-3-fluoro-1-methylpiperidin-4-yl)oxy)phenyl)methanone] | –
17 | 200 to 1000 | Cc1nc2c3c(nn2c(C)c1Cl)CN(C(=O)c1ccccc1O[C@H]1CCC[C@@H]1O)C3 (racemic) [Example 8, (anti)-(6-Chloro-5,7-dimethyl-1H,3H-2,4,7a,8-tetraaza-cyclopenta[a]inden-2-yl)-[2-(2-hydroxy-cyclopentyloxy)-phenyl]-methanone] | –
18 | 200 to 1000 | (anti)-(6-Chloro-5-ethyl-7-methyl-1H,3H-2,4,7a,8-tetraaza-cyclopenta[a]inden-2-yl)-[2-(4-hydroxy-pyrrolidin-3-yl oxy)-phenyl]-methanone or (anti)-(6-Chloro-5-methyl-7-ethyl-1H,3H-2,4,7a,8-tetraaza-cyclopenta[a]inden-2-yl)-[2-(4-hydroxy-pyrrolidin-3-yl oxy)-phenyl]-methanone [Example 10] | –
19 | < 200 | Cc1nc2c3c(nn2c(C)c1Cl)CN(C(=O)c1ccc(F)cc1OC[C@H]1CC(F)(F)CN1)C3 [Example 56, (6-Chloro-5,7-dimethyl-1H,3H-2,4,7a,8-tetraaza-cyclopenta[a]inden-2-yl)-[2-((R)-4,4-difluoro-pyrrolidin-2-ylmethoxy)-4-fluoro-phenyl]-methanone] | –
20 | < 200 | Cc1nc2c3c(nn2c(C)c1Cl)CN(C(=O)c1ccc(F)cc1O[C@H]1CC[C@H](O)CC1)C3 (single isomer, unassigned) [Example 41, (anti)-(6-Chloro-5,7-dimethyl-1H,3H-2,4,7a8-tetraaza-cyclopenta[a]inden-2-yl)-[4-fluoro-2-(4-hydroxy-cyclohexyloxy)-phenyl]-methanone] | –
